According to patent publication US6680058B1, “Compositions and methods for contraception in or sterilization of mammals” (Board of Supervisors of Louisiana State University and …, priority 1997, dated 2004):

Assays:
[1] = target: T1, GnRH receptor (Homo sapiens, UniProt P30968); conditions: reported; see U.S. Pat. No. 5,488,036; cited from earlier work
T1 sequence (P30968 1-328): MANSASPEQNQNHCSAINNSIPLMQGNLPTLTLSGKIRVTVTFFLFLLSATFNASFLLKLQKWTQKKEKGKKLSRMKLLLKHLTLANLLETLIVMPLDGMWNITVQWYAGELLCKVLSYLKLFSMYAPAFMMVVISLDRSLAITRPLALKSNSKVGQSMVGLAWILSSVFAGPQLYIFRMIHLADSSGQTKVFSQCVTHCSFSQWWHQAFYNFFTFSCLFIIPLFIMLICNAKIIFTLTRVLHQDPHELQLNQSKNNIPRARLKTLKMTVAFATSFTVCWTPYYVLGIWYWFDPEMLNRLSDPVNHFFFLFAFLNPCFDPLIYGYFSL

[2] = system: granulosa cells; test: Steroid hormone production by granulosa cells (data not shown); format: cell-based, bovine
Description: Stimulation of target cell hormone production was not required for cell lysis.

[3] = system: Bonamia ostreae; conditions: in vitro; Morvan et al. 1994; cited from earlier work
[4] = system: cells of the flat oyster Ostrea edulis; conditions: at the doses that reduced parasite viability; Morvan et al. 1994; cited from earlier work
[5] = target: T2, GnRH receptor (Rattus norvegicus, UniProt P30969); test: Displacement of radiolabelled monoiodinated-GnRH from rat pituitary membranes (Example 24); format: binding
T2 construct: specifically displaced radiolabelled monoiodinated-GnRH from rat pituitary membranes; from tissue; host or cells: rat pituitary membranes
T2 sequence (P30969 1-327): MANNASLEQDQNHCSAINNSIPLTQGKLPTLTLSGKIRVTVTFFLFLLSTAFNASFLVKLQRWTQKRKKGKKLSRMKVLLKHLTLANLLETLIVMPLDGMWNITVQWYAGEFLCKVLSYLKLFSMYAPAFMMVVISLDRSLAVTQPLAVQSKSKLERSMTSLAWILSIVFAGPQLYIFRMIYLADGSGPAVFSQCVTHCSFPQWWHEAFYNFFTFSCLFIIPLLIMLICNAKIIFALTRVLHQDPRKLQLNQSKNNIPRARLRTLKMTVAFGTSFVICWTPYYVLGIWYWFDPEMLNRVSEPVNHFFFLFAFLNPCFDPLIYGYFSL
Description: We also synthesized D-Lys^6GnRH (SEQ. ID NO. 13), so that hecate could be conjugated to the D-Lys^6, a position that could minimize interference with binding of the GnRH domain to the GnRH receptor. These synthetic peptides specifically displaced radiolabelled monoiodinated-GnRH from rat pituitary membranes.

[6] = system: sexually mature, Sprague-Dawley female rats; test: Sexually mature Sprague-Dawley female rats, single intravenous treatment, necropsy 48 or 96 hours after treatment, H&E and PAS stain (Examples 15-22); format: in vivo, rat; conditions: 334 μg in 200 μL saline (1.35 mM) i.v.; sacrificed 48 or 96 hours after injection
Description: Eight sexually mature, Sprague-Dawley female rats were randomly assigned to one of eight treatments. Each group of rats received a single treatment intravenously, as described below. Rats were sacrificed and necropsied either 48 or 96 hours after treatment. The ovaries, uterus, pancreas, liver, spleen, lungs, heart, thyroid, and adrenal glands were fixed in 10% buffered formalin; sectioned; and stained with H&E (hematoxylin and eosin) stain; except that the pituitary glands were stained with PAS (periodic acid-Schiff) stain with no counter-stain. The treatments were selected so that each animal received an equimolar amount of the compound with which it was treated.

[7] = system: pituitary basophilic (gonadotropic) cells; test: Adult female rat pituitary gland sections in tissue culture, histology ten hours after treatment (Examples 1-6); format: cell-based; conditions: 50 μM hecate in the medium; ten hours
Description: The pituitary gland of an adult female rat was harvested and divided into six sections of approximately equal size. One section was placed in each of six wells containing tissue culture medium at 37° C. A different treatment was applied to each well, as described below. Ten hours after treatment, the tissue from each well was fixed, and the histology of each was examined microscopically.

[8] = system: bovine small luteal cells; test: In vitro lysis of bovine small luteal cells, Trypan Blue exclusion and release of lactic dehydrogenase (Examples 25-32); format: cell-based; conditions: 22 hr. incubation; for killing of small luteal cells: Trypan Blue exclusion
Description: We studied in vitro lysis of bovine luteal cells with GnRH-hecate conjugate and with hecate-bLH conjugate (SEQ. ID NO. 12). (The bLH component of the conjugate is a 15-mer fragment of the beta chain of luteinizing hormone, SEQ. ID NO. 11). Small luteal cells were collected from cattle corpora lutea post-slaughter.
Small luteal cells in culture were incubated with one of the following treatments for 22 hours, and were then examined for viability using Trypan Blue exclusion and release of lactic dehydrogenase.

[9] = system: bovine granulosa cells; test: In vitro lysis of bovine granulosa cells (Examples 33-34); format: cell-based; conditions: hecate alone; compared with small luteal cells
Description: We also studied in vitro lysis of bovine granulosa cells with GnRH-hecate conjugate and with hecate-bLH conjugate. Granulosa cells were isolated from bovine pre-ovulatory follicles. (Granulosa cells are hormonally active cells with numerous LH receptors.) Our experiments with granulosa cells were otherwise generally similar to those described above for Examples 25-32.

[10] = system: sexually mature, mixed breed, female rats; test: Sexually mature female rats, double intravenous treatment, necropsy two weeks after treatment (Examples 9-14); format: in vivo, rat; conditions: Treatment 12: hecate 337 μg i.v., repeated after 24 hours; two weeks
Description: Eighteen sexually mature, mixed breed, female rats were randomly assigned to one of six groups containing three rats each. Each group of rats received a double treatment intravenously, as described below. Two weeks after the treatment, the rats were sacrificed and necropsied. The reproductive and endocrine organs were sectioned, weighed, and examined histologically.

CCNC(=O)[C@@H]1CCCN1C(=O)[C@H](CCCNC(=N)N)NC(=O)[C@H](CC(C)C)NC(=O)[C@@H](COC(C)(C)C)NC(=O)[C@H](Cc1ccc(O)cc1)NC(=O)[C@H](CO)NC(=O)[C@H](Cc1c[nH]c2ccccc12)NC(=O)[C@H](Cc1cnc[nH]1)NC(=O)[C@@H]1CCC(=O)N1 [buserelin]
binding affinity to the GnRH receptor compared with GnRH [1]: greater binding affinity to the GnRH receptor than does GnRH itself

CCNC(=O)[C@@H]1CCCN1C(=O)[C@H](CCCNC(=N)N)NC(=O)[C@H](CC(C)C)NC(=O)[C@@H](CC(C)C)NC(=O)[C@H](Cc1ccc(O)cc1)NC(=O)[C@H](CO)NC(=O)[C@H](Cc1c[nH]c2ccccc12)NC(=O)[C@H](Cc1c[nH]cn1)NC(=O)[C@@H]1CCC(=O)N1 [leuprolide]
binding affinity to the GnRH receptor compared with GnRH [1]: greater binding affinity to the GnRH receptor than does GnRH itself

15-mer fragment of the bLH subunit: 15-mer fragment of the beta chain of luteinizing hormone, SEQ. ID NO. 11 (SYAVALSCQCALCRR)
production of steroid hormones (stimulus-coupled response) [2]: did not initiate the production of steroid hormones

magainin 1: antimicrobial peptide magainin 1 (GIGKFLHSAGKFGKAFVGEIMKS; Magainin-1; UniProt P11006 37-59, looked up)
viability of the parasite Bonamia ostreae [3]: selectively reduce the viability | effect on cells of the flat oyster Ostrea edulis [4]: did not affect

CC(C)C[C@H](NC(=O)[C@@H](COC(C)(C)C)NC(=O)[C@H](Cc1ccc(O)cc1)NC(=O)[C@H](CO)NC(=O)[C@H](Cc1c[nH]c2ccccc12)NC(=O)[C@H](Cc1cnc[nH]1)NC(=O)[C@@H]1CCC(=O)N1)C(=O)N[C@@H](CCCNC(=N)N)C(=O)N1CCC[C@H]1C(=O)NNC(N)=O [goserelin]
binding affinity to the GnRH receptor compared with GnRH [1]: greater binding affinity to the GnRH receptor than does GnRH itself

D-Lys^6GnRH: GnRH analog with D-Lys at position 6, SEQ. ID NO. 13
specific displacement of the radiolabelled peptide relative to equimolar concentrations of GnRH ([5]; molar basis over a 1000-fold concentration range (n=6), native GnRH = 100%): 187%±8%

CC(C)C[C@H](NC(=O)CNC(=O)[C@H](Cc1ccc(O)cc1)NC(=O)[C@H](CO)NC(=O)[C@H](Cc1c[nH]c2ccccc12)NC(=O)[C@H](Cc1cnc[nH]1)NC(=O)[C@@H]1CCC(=O)N1)C(=O)N[C@@H](CCCNC(=N)N)C(=O)N1CCC[C@H]1C(=O)NCC(N)=O [GnRH, gonadotropin-releasing hormone, reference compound]
gross lesions in the organs [6]: No gross lesions

D-Lys^6GnRH-hecate: hecate conjugated to the D-Lys^6 of D-Lys^6GnRH
displacement of radiolabelled monoiodinated-GnRH, compared with native mammalian GnRH ([5]; as measured by cpm of radioactivity): comparable to (and actually slightly greater than) displacement by native mammalian GnRH

hecate: amphipathic lytic peptide, synthetic peptide analog of melittin, SEQ. ID NO. 2 (FALALKALKKALKKLKKALKKAL) [reference compound]
histology of pituitary tissue after treatment [7]: appeared normal | cell death of small luteal cells ([8]; 1 μM): did not differ significantly from negative control (media) or from bLH alone | killing of small luteal cells ([8]; 5 μM): approximately 50% | killing of small luteal cells ([8]; 10 μM): Significant killing | susceptibility of granulosa cells to killing [9]: much more susceptible to killing by hecate alone than were the small luteal cells | ovarian function [10]: normal ovarian function
